From article PMC6211230, “Assessment of the antiproliferative and apoptotic roles of sulfonamide carbonic anhydrase IX inhibitors in HeLa cancer cell line” (Journal of Enzyme Inhibition and Medicinal Chemistry, 2018)

How the values were obtained:
Assay type in all cases: cell-based, human
HeLa cells [1] = assay: Intracellular pH (BCFL-AM fluorometric kit); settings: 0–25 μM
Description: Intracellular pH was measured according to the protocol of the fluorometric Intracellular pH Assay Kit (Sigma, Schnelldorf, Germany, MAK-150). Fluorescent BCFL-AM indicator that was able to pass through the cell membrane was used to measure intracellular pH fluctuations in the fluorometric intracellular pH kit. BCFL-AM was utilised to measure the reductions in intracellular pH of the cells that had been treated by various conditions. The cells were plated on black plates, as 6 × 10^4 in each well of the plate, and incubated for 24 h. The medium was replaced with BCFL-AM Reagent which had been prepared in 100 µl of HBS solution (Hank’s buffer with 20 mM HEPES, 5 mM Probenecid), then the cells were incubated at 37 °C in an atmosphere of 5% CO2 for 30 min (protected from light). Sulfonamide compound at doses of 0–25 μM was added to the HBS solution. In the next 5 min, the measurement was performed at wavelengths of 490 nm (excitation) 535 nm (emission) in spectrofluorimetry (Spectramax, M5). Extracellular pHe and lactate levels were measured with commercial kit by the blood gas device (ABL90 FLEX PLUS, Radiometer, Copenhagen, Denmark) which is routinely used in the clinical biochemistry laboratory of hospital. After the application of the substance in this method, the media were analysed directly by the device.

HeLa cells [2] = assay: gamma-H2AX immunofluorescence (DNA damage); settings: 10 and 25 μM, 24 h
Description: HeLa cells (1 × 10^4/ml) were seeded in 12-well cell culture dishes and after 24 h they were administered with the sulfonamide derivative compounds at doses of 10 and 25 µM and incubated for 24 h. The cells were washed with PBS and fixed with 100% methanol at −20 °C overnight, which was followed by PBS washing three times for 10 min for each washing. The cells were treated with 0.2% Triton X-100 in a shaker, at room temperature for 5 min. They were washed with PBS, and 1% BSA-containing PBS was then added, and incubation with primary mouse monoclonal anti-γ-H2AX antibody (Cell Signalling Technology, Danvers, MA, USA) was applied at 37 °C for 1 h. The cells were washed with PBS for 5 min three times. Secondary goat anti-mouse Alexa-488-conjugated IgG (Invitrogen, Thermo Fisher Scientific, Waltham, MA, USA) was administered and the cells were incubated at 37 °C for 20 min, followed by PBS washing for 4–5 min three times. 1 ml 70% EtOH was added, and at +4 °C, released to incubation for 5 min. 1 ml 100% EtOH was added in a shaker, which was then incubated at room temperature for 1–2 min. The nucleus was stained with DAPI and the images were recorded using an Olympus Inverted fluorescence microscope (Olympus CKX 53, DP73, Tokyo, Japan).

MDA-MB-231 = assay: WST-1 cytotoxicity, MDA-MB-231
Description: Cancer and normal cell lines were purchased from ATCC and stored in liquid nitrogen. HT-29 (colon adenoma cancer), HeLa (cervix adenoma cancer cell), MDA-MB-231 (breast adenoma cancer cell) and HEK-293 (embryonic kidney epithelial cell), PNT-1A (normal prostate cells) cell lines were incubated in DMEM: F-12 and RPMI-1640, including 10% Foetal Bovine Serum (FBS), 100 μg/mL streptomycin/100 IU/mL penicillin, at 37 °C in an incubator containing 5% CO2, 95% air in a humid atmosphere.
The cytotoxic effects of the substances were evaluated with WST-1 kits (Roche, Germany) in accordance with the manufacturer’s protocols. The cells were plated on 96-well plates (10^4 cells in each well). After incubation for 24 h, the media were discarded and the substances and Cisplatin as the control drug, at doses of 0, 2.5, 5, 10, 25, 50, 100, and 200 μM, were incubated for 24, 48, and 72 h. WST-1 reactive of 10 µl was added to all wells. Following 4 h incubation, the measurements were taken on a plate reader (Spectramax M5) at wavelengths of 450 and 630 nm. Graphs were then created and the IC50 value of each substance was calculated.

Structure (SMILES): NS(=O)(=O)c1ccc(CCN=Cc2cc(Cl)ccc2O)cc1 [Compound A-1]
- intracellular pH (pHi) change (HeLa cells [1]): reduction of pHi
- nuclear γ-H2AX foci (HeLa cells [2]): increase the number of nuclear γ-H2AXfoci
- IC50 (MDA-MB-231; MDA-MB-231, 24 h): 293 µM
- IC50 (MDA-MB-231; MDA-MB-231, 48 h): 65.9 µM
- IC50 (MDA-MB-231; MDA-MB-231, 72 h): 37.3 µM
